# Details: roseburia intestinalis, 12 h, 2 µM
# Description: The drug is tested on Roseburia intestinalis strain: L1-82 for biotransformation. The drug concentrations were measured before and after a 12-h incubation by liquid-chromatography-coupled mass spectrometry (LC–MS)
row,SMILES,Bacterial Biotransformation
1,CC(C)NCC(O)COc1ccc(CCOCC2CC2)cc1 (stereo not given) [BETAXOLOL],Compound NOT metabolized
2,CN(C)CCOC(c1ccc(Cl)cc1)c1ccccn1.O=C(O)/C=C\C(=O)O (stereo not given) [CARBINOXAMINE MALEATE],Compound NOT metabolized
3,CCOC(=O)[C@H](CCc1ccccc1)N[C@@H](C)C(=O)N1[C@H](C(=O)O)C[C@H]2CCCC[C@@H]21 [TRANDOLAPRIL],Compound NOT metabolized
4,CC(C)NCC(O)COc1ccc(CC(N)=O)cc1 (stereo not given) [ATENOLOL],Compound NOT metabolized

# Test: The drug is tested on Bacteroides cellulosilyticus strain: DSM14838 for biotransformation. The drug concentrations were measured before and after a 12-h incubation by liquid-chromatography-coupled mass spectrometry (LC–MS)
# Details: 2 µM
row,SMILES,Bacterial Biotransformation
1,CN(C)CCOC(c1ccc(Cl)cc1)c1ccccn1.O=C(O)/C=C\C(=O)O (stereo not given) [CARBINOXAMINE MALEATE],Compound NOT metabolized
2,CCOC(=O)[C@H](CCc1ccccc1)N[C@@H](C)C(=O)N1[C@H](C(=O)O)C[C@H]2CCCC[C@@H]21 [TRANDOLAPRIL],Compound metabolized
3,CC(C)NCC(O)COc1ccc(CC(N)=O)cc1 (stereo not given) [ATENOLOL],Compound NOT metabolized

# Details: akkermansia muciniphila, 12 h, 2 µM
# Description: The drug is tested on Akkermansia muciniphila strain: ATCC BAA-835 for biotransformation. The drug concentrations were measured before and after a 12-h incubation by liquid-chromatography-coupled mass spectrometry (LC–MS)
row,SMILES,Bacterial Biotransformation
1,CC(C)NCC(O)COc1ccc(CCOCC2CC2)cc1 (stereo not given) [BETAXOLOL],Compound NOT metabolized
2,CN(C)CCOC(c1ccc(Cl)cc1)c1ccccn1.O=C(O)/C=C\C(=O)O (stereo not given) [CARBINOXAMINE MALEATE],Compound NOT metabolized
3,CCOC(=O)[C@H](CCc1ccccc1)N[C@@H](C)C(=O)N1[C@H](C(=O)O)C[C@H]2CCCC[C@@H]21 [TRANDOLAPRIL],Compound NOT metabolized
4,CC(C)NCC(O)COc1ccc(CC(N)=O)cc1 (stereo not given) [ATENOLOL],Compound NOT metabolized

# Test: The drug is tested on Eubacterium ventriosum strain: ATCC27560 for biotransformation. The drug concentrations were measured before and after a 12-h incubation by liquid-chromatography-coupled mass spectrometry (LC–MS)
# Assay type: ADME
# Parameters: dose 2 uM, timepoint 0 vs 12 hours
# Details: 2 µM
row,SMILES,Bacterial Biotransformation
1,CC(C)NCC(O)COc1ccc(CCOCC2CC2)cc1 (stereo not given) [BETAXOLOL],Compound NOT metabolized
2,CN(C)CCOC(c1ccc(Cl)cc1)c1ccccn1.O=C(O)/C=C\C(=O)O (stereo not given) [CARBINOXAMINE MALEATE],Compound NOT metabolized
3,CCOC(=O)[C@H](CCc1ccccc1)N[C@@H](C)C(=O)N1[C@H](C(=O)O)C[C@H]2CCCC[C@@H]21 [TRANDOLAPRIL],Compound NOT metabolized
4,CC(C)NCC(O)COc1ccc(CC(N)=O)cc1 (stereo not given) [ATENOLOL],Compound NOT metabolized

# Details: bacteroides thetaiotaomicron, 12 h, 2 µM
# Description: The drug is tested on Bacteroides thetaiotaomicron strain: VPI-5482 for biotransformation. The drug concentrations were measured before and after a 12-h incubation by liquid-chromatography-coupled mass spectrometry (LC–MS)
row,SMILES,Bacterial Biotransformation
1,CC(C)NCC(O)COc1ccc(CCOCC2CC2)cc1 (stereo not given) [BETAXOLOL],Compound NOT metabolized
2,CN(C)CCOC(c1ccc(Cl)cc1)c1ccccn1.O=C(O)/C=C\C(=O)O (stereo not given) [CARBINOXAMINE MALEATE],Compound NOT metabolized

# Details: bacteroides eggerthii, 12 h, 2 µM
# Description: The drug is tested on Bacteroides eggerthii strain: DSM20697 for biotransformation. The drug concentrations were measured before and after a 12-h incubation by liquid-chromatography-coupled mass spectrometry (LC–MS)
row,SMILES,Bacterial Biotransformation
1,CC(C)NCC(O)COc1ccc(CCOCC2CC2)cc1 (stereo not given) [BETAXOLOL],Compound NOT metabolized
2,CN(C)CCOC(c1ccc(Cl)cc1)c1ccccn1.O=C(O)/C=C\C(=O)O (stereo not given) [CARBINOXAMINE MALEATE],Compound NOT metabolized
3,CCOC(=O)[C@H](CCc1ccccc1)N[C@@H](C)C(=O)N1[C@H](C(=O)O)C[C@H]2CCCC[C@@H]21 [TRANDOLAPRIL],Compound metabolized
4,CC(C)NCC(O)COc1ccc(CC(N)=O)cc1 (stereo not given) [ATENOLOL],Compound NOT metabolized

# Details: segatella copri, 12 h, 2 µM
# Description: The drug is tested on Prevotella copri strain: DSM18205 for biotransformation. The drug concentrations were measured before and after a 12-h incubation by liquid-chromatography-coupled mass spectrometry (LC–MS)
row,SMILES,Bacterial Biotransformation
1,CN(C)CCOC(c1ccc(Cl)cc1)c1ccccn1.O=C(O)/C=C\C(=O)O (stereo not given) [CARBINOXAMINE MALEATE],Compound NOT metabolized
2,CCOC(=O)[C@H](CCc1ccccc1)N[C@@H](C)C(=O)N1[C@H](C(=O)O)C[C@H]2CCCC[C@@H]21 [TRANDOLAPRIL],Compound metabolized
3,CC(C)NCC(O)COc1ccc(CC(N)=O)cc1 (stereo not given) [ATENOLOL],Compound NOT metabolized

# Test: The drug is tested on Collinsella intestinalis strain: DSM13280 for biotransformation. The drug concentrations were measured before and after a 12-h incubation by liquid-chromatography-coupled mass spectrometry (LC–MS)
# Details: 2 µM
row,SMILES,Bacterial Biotransformation
1,CC(C)NCC(O)COc1ccc(CCOCC2CC2)cc1 (stereo not given) [BETAXOLOL],Compound NOT metabolized
2,CN(C)CCOC(c1ccc(Cl)cc1)c1ccccn1.O=C(O)/C=C\C(=O)O (stereo not given) [CARBINOXAMINE MALEATE],Compound NOT metabolized
3,CC(C)NCC(O)COc1ccc(CC(N)=O)cc1 (stereo not given) [ATENOLOL],Compound NOT metabolized

# Test: The drug is tested on Clostridium asparagiforme strain: DSM15981 for biotransformation. The drug concentrations were measured before and after a 12-h incubation by liquid-chromatography-coupled mass spectrometry (LC–MS)
# Assay type: ADME
# Parameters: dose 2 uM, timepoint 0 vs 12 hours
# Details: enterocloster asparagiformis, 2 µM
row,SMILES,Bacterial Biotransformation
1,CC(C)NCC(O)COc1ccc(CCOCC2CC2)cc1 (stereo not given) [BETAXOLOL],Compound NOT metabolized
2,CN(C)CCOC(c1ccc(Cl)cc1)c1ccccn1.O=C(O)/C=C\C(=O)O (stereo not given) [CARBINOXAMINE MALEATE],Compound NOT metabolized
3,CCOC(=O)[C@H](CCc1ccccc1)N[C@@H](C)C(=O)N1[C@H](C(=O)O)C[C@H]2CCCC[C@@H]21 [TRANDOLAPRIL],Compound NOT metabolized
4,CC(C)NCC(O)COc1ccc(CC(N)=O)cc1 (stereo not given) [ATENOLOL],Compound NOT metabolized

# Details: bacteroides thetaiotaomicron, 12 h, 2 µM
# Remark: another data set of the same source
# Description: The drug is tested on Bacteroides thetaiotaomicron strain: 7330 for biotransformation. The drug concentrations were measured before and after a 12-h incubation by liquid-chromatography-coupled mass spectrometry (LC–MS)
row,SMILES,Bacterial Biotransformation
1,CC(C)NCC(O)COc1ccc(CCOCC2CC2)cc1 (stereo not given) [BETAXOLOL],Compound NOT metabolized
2,CN(C)CCOC(c1ccc(Cl)cc1)c1ccccn1.O=C(O)/C=C\C(=O)O (stereo not given) [CARBINOXAMINE MALEATE],Compound NOT metabolized

# Test: The drug is tested on Dorea formicigenerans strain: ATCC27755 for biotransformation. The drug concentrations were measured before and after a 12-h incubation by liquid-chromatography-coupled mass spectrometry (LC–MS)
# Details: 2 µM
row,SMILES,Bacterial Biotransformation
1,CC(C)NCC(O)COc1ccc(CCOCC2CC2)cc1 (stereo not given) [BETAXOLOL],Compound NOT metabolized
2,CN(C)CCOC(c1ccc(Cl)cc1)c1ccccn1.O=C(O)/C=C\C(=O)O (stereo not given) [CARBINOXAMINE MALEATE],Compound NOT metabolized
3,CCOC(=O)[C@H](CCc1ccccc1)N[C@@H](C)C(=O)N1[C@H](C(=O)O)C[C@H]2CCCC[C@@H]21 [TRANDOLAPRIL],Compound NOT metabolized
4,CC(C)NCC(O)COc1ccc(CC(N)=O)cc1 (stereo not given) [ATENOLOL],Compound NOT metabolized

# Test: The drug is tested on Blautia luti strain: DSM14534 for biotransformation. The drug concentrations were measured before and after a 12-h incubation by liquid-chromatography-coupled mass spectrometry (LC–MS)
# Assay type: ADME
# Parameters: dose 2 uM, timepoint 0 vs 12 hours
# Details: 2 µM
row,SMILES,Bacterial Biotransformation
1,CC(C)NCC(O)COc1ccc(CCOCC2CC2)cc1 (stereo not given) [BETAXOLOL],Compound NOT metabolized
2,CN(C)CCOC(c1ccc(Cl)cc1)c1ccccn1.O=C(O)/C=C\C(=O)O (stereo not given) [CARBINOXAMINE MALEATE],Compound NOT metabolized
3,CCOC(=O)[C@H](CCc1ccccc1)N[C@@H](C)C(=O)N1[C@H](C(=O)O)C[C@H]2CCCC[C@@H]21 [TRANDOLAPRIL],Compound NOT metabolized
4,CC(C)NCC(O)COc1ccc(CC(N)=O)cc1 (stereo not given) [ATENOLOL],Compound NOT metabolized

# Test: The drug is tested on Bacteroides fragilis strain: HMW610 for biotransformation. The drug concentrations were measured before and after a 12-h incubation by liquid-chromatography-coupled mass spectrometry (LC–MS)
# Details: 2 µM
row,SMILES,Bacterial Biotransformation
1,CC(C)NCC(O)COc1ccc(CCOCC2CC2)cc1 (stereo not given) [BETAXOLOL],Compound NOT metabolized

# Test: The drug is tested on Bacteroides vulgatus strain: ATCC8482 for biotransformation. The drug concentrations were measured before and after a 12-h incubation by liquid-chromatography-coupled mass spectrometry (LC–MS)
# Details: phocaeicola vulgatus, 2 µM
row,SMILES,Bacterial Biotransformation
1,CN(C)CCOC(c1ccc(Cl)cc1)c1ccccn1.O=C(O)/C=C\C(=O)O (stereo not given) [CARBINOXAMINE MALEATE],Compound NOT metabolized
2,CCOC(=O)[C@H](CCc1ccccc1)N[C@@H](C)C(=O)N1[C@H](C(=O)O)C[C@H]2CCCC[C@@H]21 [TRANDOLAPRIL],Compound metabolized
3,CC(C)NCC(O)COc1ccc(CC(N)=O)cc1 (stereo not given) [ATENOLOL],Compound NOT metabolized

# Test: The drug is tested on Blautia hansenii strain: DSM20583 for biotransformation. The drug concentrations were measured before and after a 12-h incubation by liquid-chromatography-coupled mass spectrometry (LC–MS)
# Details: 2 µM
row,SMILES,Bacterial Biotransformation
1,CN(C)CCOC(c1ccc(Cl)cc1)c1ccccn1.O=C(O)/C=C\C(=O)O (stereo not given) [CARBINOXAMINE MALEATE],Compound NOT metabolized

# Test: The drug is tested on Escherichia coli strain: BW25113 for biotransformation. The drug concentrations were measured before and after a 12-h incubation by liquid-chromatography-coupled mass spectrometry (LC–MS)
# Details: 2 µM
row,SMILES,Bacterial Biotransformation
1,CC(C)NCC(O)COc1ccc(CCOCC2CC2)cc1 (stereo not given) [BETAXOLOL],Compound NOT metabolized
2,CC(C)NCC(O)COc1ccc(CC(N)=O)cc1 (stereo not given) [ATENOLOL],Compound NOT metabolized

# Test: The drug is tested on Bacteroides sp. WH2 strain: WH2 for biotransformation. The drug concentrations were measured before and after a 12-h incubation by liquid-chromatography-coupled mass spectrometry (LC–MS)
# Details: bacteroides sp. wh2, 12 h, 2 µM
row,SMILES,Bacterial Biotransformation
1,CC(C)NCC(O)COc1ccc(CCOCC2CC2)cc1 (stereo not given) [BETAXOLOL],Compound NOT metabolized
2,CN(C)CCOC(c1ccc(Cl)cc1)c1ccccn1.O=C(O)/C=C\C(=O)O (stereo not given) [CARBINOXAMINE MALEATE],Compound NOT metabolized
3,CC(C)NCC(O)COc1ccc(CC(N)=O)cc1 (stereo not given) [ATENOLOL],Compound NOT metabolized

# Test: The drug is tested on Bifidobacterium breve strain: DSM20213 for biotransformation. The drug concentrations were measured before and after a 12-h incubation by liquid-chromatography-coupled mass spectrometry (LC–MS)
# Details: 2 µM
row,SMILES,Bacterial Biotransformation
1,CC(C)NCC(O)COc1ccc(CCOCC2CC2)cc1 (stereo not given) [BETAXOLOL],Compound NOT metabolized
2,CN(C)CCOC(c1ccc(Cl)cc1)c1ccccn1.O=C(O)/C=C\C(=O)O (stereo not given) [CARBINOXAMINE MALEATE],Compound NOT metabolized
3,CCOC(=O)[C@H](CCc1ccccc1)N[C@@H](C)C(=O)N1[C@H](C(=O)O)C[C@H]2CCCC[C@@H]21 [TRANDOLAPRIL],Compound metabolized
4,CC(C)NCC(O)COc1ccc(CC(N)=O)cc1 (stereo not given) [ATENOLOL],Compound NOT metabolized

# Reference: ChEMBL document CHEMBL5303573, “Mapping human microbiome drug metabolism by gut bacteria and their genes” (Nature, 2019)
